Test results published in patent US20140363378A1, “SELF-ASSEMBLING MOLECULES THAT ACCUMULATE IN ACIDIC TUMOR MICROENVIRONMENTS” (The Ohio State University, priority 2012, published 2014).
Peptide text beside a SMILES is read from it. * marks the point of attachment. Palmitoyl = CCCCCCCCCCCCCCCC(=O)*; DO3A:Gd = Gd-chelated DO3A

Tests used:
Assay type in all cases: physicochemical
[1] = pH titration of peptide amphiphiles; details: aqueous solution of 150 mM NaCl and 2.2 mM CaCl2, glutamic acid residues, 10 μM PA
Experimental: The titration measurements were conducted on 10 μM peptide amphiphile solutions prepared in 150 mM NaCl and 2.2 mM CaCl2 using milli-Q water. The solution was heated at 80° C. for 30 minutes followed by slow cooling at room temperature. The pH of the solution was then adjusted to 4 using HCl. Finally, an Accumet XL15 pH meter (Fisher Scientific) coupled with an Orion Ross Ultra semi-micro electrode (8103BNUWP, Thermo Scientific) was used to track changes in pH of the solution as NaOH solution was added in small increments. pKa values were obtained from the second inflection points of the first derivative plots of the titration data. The first transition corresponds to neutralization of excess HCl. The calculated pKas reflect the average pKa for all four glutamic acids.

[2] = Circular dichroism (CD) spectroscopy of pH-triggered self-assembly transition; details: for each concentration (10 μM, 500 μM)
Experimental: The target PA concentration (10 μM) was below the detectable limit of conventional techniques to determine the morphology such as cryoTEM and small-angle X-ray scattering. Consequently, circular dichroism (CD) spectroscopy was initially used to characterize the morphology of these PAs at various pH values. PA 1 was the first molecule synthesized that underwent a self-assembly transition in the desired pH range of 6.6-7.4 at 10 μM PA concentration, in 150 mM NaCl and 2.2 mM CaCl2 (FIG. 2A) (Goldberger, J. E., et al. Angew. Chem. Int. Ed. 2011 50:6292-95). […] The transition pH from random coil to β-sheet occurred at a pH of 6.6. The transition pH was defined as the value at which the ellipticity at 205 nm rises to zero, followed by the appearance of a minimum at 218-220 nm.
Measurements were done on a Jasco-815 Circular Dichroism spectrometer using 1 cm path length quartz cuvettes. […] Double deionized Milli-Q water was used for preparing all solutions. The solutions were then heated at 80° C. for 30 minutes in a water bath and gradually cooled to room temperature. […]

[3] = Transmission electron microscopy (TEM) of self-assembled morphology; details: 0.5 mM PA
Experimental: At a pH of 7.75, HCl was added until the pH was 6.1, and the resulting β-sheet CD spectrum was collected within three minutes. An appropriate amount of NaOH was then added to reverse the pH back to 7.70, and random coil behavior was observed again. […] Conventional transmission electron microscopy (TEM) imaging was used to determine the morphology of 10 μM of PA 1, at pH values of 6 and 8 (FIG. 6A, 6B). The TEM grids were prepared within three minutes of pH adjustment. […] This nanofiber diameter corresponds roughly to twice the molecular length based on MM+ molecular simulations, corresponding approximately to the expected diameter of cylindrical fibers consisting of hydrophobically collapsed β-sheets.
TEM images were obtained using solutions of either 10 μM or 0.5 mM peptide amphiphile concentration, as well as 150 mM NaCl and 2.2 mM CaCl2 in Milli-Q water. The solutions were first heated at 80° C. for 30 minutes in a water bath and then gradually cooled to room temperature. This was followed by pH adjustment using either HCl or NaOH. 5 μL of this solution was pipetted onto a Carbon Formvar grid (Electron Microscopy Sciences) and allowed to sit for 2 minutes before being wicked dry using filter paper. For the 10 μM experiments that were performed to determine the time dependence of nanofiber formation, solutions were dropcast onto the grid within three minutes of pH adjustment. […]

| Compound | pKa [1] | other results |
| --- | --- | --- |
| CCCCCCCCCCCCCCCC(=O)N[C@H](C(=O)N[C@@H](C)C(=O)N[C@@H](C)C(=O)N[C@@H](C)C(=O)N[C@@H](CCC(=O)O)C(=O)N[C@@H](CCC(=O)O)C(=O)N[C@@H](CCC(=O)O)C(=O)N[C@@H](CCC(=O)O)C(N)=O)C(C)C [PA 3] (Palmitoyl-VAAAEEEE-NH2) | 4.86 ± 0.11 | – |
| Palmitoyl-VAAAEEEEK(DO3A:Gd)-NH2 (also: Gd complex of DO3A) [PA 6] | – | nanofiber to micelle transition pH, lower than PA 5 by [2]: 0.4 units |
| CCCCCCCCCCCCCCCC(=O)N[C@H](C(=O)N[C@@H](C)C(=O)N[C@@H](C)C(=O)N[C@@H](C)C(=O)N[C@@H](CCC(=O)O)C(=O)N[C@@H](CCC(=O)O)C(=O)N[C@@H](CCC(=O)O)C(=O)N[C@@H](CCC(=O)O)C(N)=O)[C@@H](C)CC [PA 1] (Palmitoyl-IAAAEEEE-NH2) | 4.66 ± 0.1 | – |
| Palmitoyl-IAAAEEEEK(DO3A:Gd)-NH2 (also: Gd complex of DO3A) [PA 5] | – | diameter of nanofibers ([3]; pH 4): 11.9±1.6 nm; diameter of spherical micelles ([3]; pH 10): 10.0±1.2 nm |
| CCCCCCCCCCCCCCCC(=O)N[C@@H](Cc1ccccc1)C(=O)N[C@@H](C)C(=O)N[C@@H](C)C(=O)N[C@@H](C)C(=O)N[C@@H](CCC(=O)O)C(=O)N[C@@H](CCC(=O)O)C(=O)N[C@@H](CCC(=O)O)C(=O)N[C@@H](CCC(=O)O)C(N)=O [PA 2] (Palmitoyl-FAAAEEEE-NH2) | 4.94 ± 0.09 | – |
| CCCCCCCCCCCCCCCC(=O)N[C@@H](Cc1ccc(O)cc1)C(=O)N[C@@H](C)C(=O)N[C@@H](C)C(=O)N[C@@H](C)C(=O)N[C@@H](CCC(=O)O)C(=O)N[C@@H](CCC(=O)O)C(=O)N[C@@H](CCC(=O)O)C(=O)N[C@@H](CCC(=O)O)C(N)=O [PA 4] (Palmitoyl-YAAAEEEE-NH2) | 4.7 ± 0.1 | – |
